Assay type in all cases: binding, BALB/c mice
Test [1] has as its system anti-carbaryl monoclonal antibody secreted by the hybridoma cell line Jnw1D2. The experiment in a line: indirect competitive ELISA characterisation of the anti-carbaryl monoclonal antibody (IC50, cross reaction). The note with it: with anti-carbaryl monoclonal antibody. From the text: 2-3 weeks after cell fusion, when the cell colonies grew up to be visually visible, the clones were picked out from the culture medium with a micropipette, transferred to a 96-well cell culture plate and cultured in HAT liquid. When the cells grew to cover ⅔ of the bottom of the well, the culture supernatant was aspirated for testing. A two-step screening method was adopted. In the first step, indirect ELISA method was used to screen out the positive wells against carbaryl, but not the carrier protein BSA. In the second step, indirect competitive ELISA method was used for testing the positive wells screened out in the first step with carbaryl as a competitor. Wells with high absorbance and sensitivity were chosen (where the high absorbance means a high final value determined in the well where the competitor is 0, i.e., the positive control well, and the high sensitivity means a low concentration, i.e. the IC50, of the competitor achieving 50% inhibition). The cells were subcloned by limiting dilution analysis, and then detected by the two-step method as described above. After 4-5 rounds of repeated subcloning, a hybridoma cell line Jnw1D2 was obtained, which was deposited in China Center for Type Culture Collection (CCTCC) (Wuhan University, Wuhan, China) under the CCTCC Accession No: C201654.
The subtype of the anti-carbaryl monoclonal antibody secreted by the hybridoma cell line Jnw1D2 was identified as IgG2b by using a commercial subtype identification kit. The titer of the antibody was 1.6×10^4 measured by enzyme-linked immunosorbent assay (ELISA).
In general terms: In an ELISA, binding on a coated surface is turned into a signal by an enzyme label.

Test [2] concerns anti-carbaryl monoclonal antibody. Nature of the test: competitive FPIA carbaryl standard curve in borate buffer solution. The note with it: 10% methanol, 10 min. On the procedure:
Step 2: First, the working concentration of each fluorescent marker was set to a corresponding fluorescent marker concentration (5 nM) when the fluorescence intensity was 10 times of the background fluorescence intensity of the BB solution (borate buffer solution). With a corresponding antibody dilution factor when 70% of the anti-carbaryl monoclonal antibody binds to the fluorescent marker (1 μg/mL), the carbaryl detection standard curve of different markers was established and the IC50 was calculated. The optimum fluorescent marker was decided based on the IC50 value of each standard curve. […]
9 concentration gradients of carbaryl standards of 100 μg/mL, 10 μg/mL, 1 μg/mL, 0.5 μg/mL, 0.1 μg/mL, 0.05 μg/mL, 0.01 μg/mL, 0.005 μg/mL and 0.001 μg/mL were formulated with 10% methanol in a borate buffer solution, and each 50 μL of the carbaryl standards, 500 μL fluorescent marker of working concentration (5 nM), and 500 μL anti-carbaryl monoclonal antibody of the working concentration (1 μg/mL) were added to a reaction tube, and incubated at room temperature in the dark for 10 min. Then the fluorescence polarization value was measured at an excitation wavelength of 485 nm and an emission wavelength of 530 nm, with a cutoff of 515 nm. […]

For test [3] the test system is unchanged. The experiment in a line: competitive FPIA carbaryl standard curve in strawberry sample matrix. The conditions noted are these: 25° C., 5 min. On the procedure:
Step 1: 20.0 g of the blank strawberry sample (which was determined to be carbaryl free by LC) was weighed and added to 20.0 mL acetonitrile, homogenized for 2 min at a high speed, filtered into a 50 mL centrifuge tube containing 4 g of sodium chloride, shaken vigorously for 3 min, and centrifuged at 5000 g for 2 min. 10 mL of the supernatant extract was aspirated to a beaker, heated in a water bath at 80° C., and evaporated to almost dryness while nitrogen was introduced into the beaker. 10 mL of methanol was added to dissolve the sample residue, to obtain a sample matrix solution. 9 concentration gradients of carbaryl standards of 100 μg/mL, 10 μg/mL, 1μg/mL, 0.5 μg/mL, 0.1 μg/mL, 0.05 μg/mL, 0.01 μg/mL, 0.005 μg/mL and 0.001 μg/mL were formulated with the sample matrix solution. Each 50 μL of the carbaryl standard solution in the sample matrix solution, 500 μL fluorescent marker solution and 500 μL anti-carbaryl monoclonal antibody solution were added and incubated at 25° C. for 5 min. Then FPIA detection was conducted. According to the correlation between the fluorescence polarization signal and the concentration of the carbaryl standard, a standard curve for carbaryl detection in the strawberry sample was obtained, as shown in FIG. 2. The detection sensitivity of carbaryl in the strawberry matrix is 108.6 μg/kg and the detection range is 32.4-363.6 μg/kg. […]

Consider `CNC(=O)O/N=C/C(C)(C)SC` [aldicarb], for which the cross reaction entry in test [1] is listed as “no cross reaction”. Regarding `CNC(=O)Oc1cccc2ccccc12` [carbaryl], the “sensitivity of the standard curve” value in test [2] was 82.3 ng/mL. In test [3], the detection sensitivity turned out to be 108.6 µg/kg. `CNC(=O)Oc1cccc2c1OC(C)(C)C2` [carbofuran]: the cross reaction entry in test [1] is “no cross reaction”. Still for that read-out and setting: as for `CNC(=O)ON=C(C)SC` [methomyl], the entry is “no cross reaction”.

Values taken from patent publication US20180209966A1, “FLUORESCENCE POLARIZATION IMMUNOASSAY METHOD FOR DETECTING CARBARYL” (priority 2017, published 2018).
